Measured values reported in patent US11492618B2, “Expression control using a regulatable intron” (ASKLEPIOS BIOPHARMACEUTICAL, INC., priority 2017, dated 2022).

Assays:
HEK293F cells [1] = test: EGFP expression from 6xATF6 promoter constructs with and without XBP1 intron after 2 mM DTT; type: cell-based, human
Experimental: For this study two constructs were prepared: • 1) 6×ATF6 elements (having the sequence TGACGTGCT) upstream of the CMV-minimal promoter (CMV-MP) and EGFP; this construct was named SYNP-ATF6-01 (see below, SEQ ID NO: 30). • 2) 6×ATF6 elements upstream of the CMV-MP and EGFP with XBP1 intron insertion; this construct was named SYNP-ATF6-02 (see below, SEQ ID NO: 31).
HEK293F cells were used in this study. All growth conditions, transfections and analyses were carried out as described in Example 1.
24 well transfections were set-up as described above. Each condition was performed in duplicate/triplicate. 24 hrs after transfection the cells were treated with either 2 mM DTT, to induce the UPR, or by mock treatment with an equivalent volume of water. 1, 3, 5 and 24 hrs after treatment of the cells GFP fluorescence was measured as previously described.
The ratio of GFP fluorescence to the control plasmid was calculated before and after induction.

HEK293F cells [2] = test: EGFP expression from ATF6 constructs induced by wtAAV production; type: cell-based, human
Experimental: In this experiment transfections were carried out in 24-well plates as previously described. The ATF6 plasmids (SYNP-ATF6-01 and SYNP-ATF6-02 constructs in the pMA-RQ vector) were transfected into HEK293F cells (using MAX reagent, as above) and after 24 hrs GFP was measured. After GFP measurement the same cells were transfected with the plasmids for wtAAV production pGRG25AAV2 (provided by Adrien Savvy) and pHelper plasmid from Takara/Clonetech in a 1:1 ratio. EGFP fluorescence was then measured after 1, 3, 5 and 24 hrs (FIGS. 7 and 8—not all data is shown). Both plasmids are required for wtAAV production, with the pGRG25AAV2 providing the wtAAV2 genome and the pHelper plasmid providing the E2, VA and E4 helper functions required for virus replication.
This confirmed successful AAV expression. Zs green is a variant of eGFP and as such GFP measurement was carried out on these cells as previously described.

SYNP-ATF6-02: 6×ATF6 elements upstream of the CMV-MP and EGFP with XBP1 intron insertion (SEQ ID NO: 31)
GFP expression after induction, ratio to CMV-IE (HEK293F cells [1]; 2 mM DTT, 3 independent experiments): 4 times the level of CMV-IE
background level of GFP fluorescence (HEK293F cells [1]; before DTT, raw data): practically zero
background level of EGFP before wtAAV production (HEK293F cells [2]): zero
